Measurements taken from patent US11260029B2, “Fish feed compositions containing a neonicotinoid for preventing and treating parasite infections” (priority 2014, dated 2022).
“And” between values parts separate entries of the source, which are not always exact repeats. Equal values may be shown once.

What was measured:
L. salmonis = settings: in-feed 1, 5 or 10 mg/kg/day for 7 days; WO 2014/064184; cited from earlier work
[1] = test system: Lepeophtheirus pre-adult lice; experiment: Feed trials: removal of pre-adult sea lice from fish fed medicated feed; format: in vivo; settings: for Lice removed by 11 days after last day of treatment / Lice removed by 3 days after last day of treatment: Feed Trial Number One; for Lice removed by 2 days after last day of treatment / Lice removed by 9 days after last day of treatment: Feed Trial Number Two
Experimental: Empyreal™ 75, a processed corn protein concentrate, was mixed with imidacloprid to form a pre-mix. This pre-mix was then added to salmon feeds using fish oil to help coat it onto the pellets to prepare the medicated feed.
Medicated feed for fish was prepared based on the amount of feed that the fish were consuming each day to give a total dosage to different tanks of fish of 10, 20, 40, 60 and 100 milligrams of active ingredient (imidacloprid) over a 5 day period. Experiments were run using total dosages given over 5 days of feeding. A 5 day period was used to provide efficacy, convenience and safety.
Individual fish weights ranged from 62 to 188 grams.
Sea lice have a number of developmental stages on salmon of which two are pre-adults that do a lot of damage to the fish (e.g. Lepeophtheirus pre-adult I, Lepeophtheirus pre-adult II, Caligus pre-adult I, Caligus pre-adult II). Compositions were tested on the two pre-adult stages of Lepeophtheirus. The disclosed compositions are also useful for killing sea lice in the adult male and adult female and adult gravid female stage and the juvenile chalimus stages.

[2] = Tolerance of fish at five times the 20 mg/kg total dosage (mortalities, histology); format: in vivo, salmon
salmon lice = settings: 100 ppm bath; in one hour; U.S. Pat. No. 5,504,081; cited from earlier work
[3] = 8 mg/kg fish per day, total 40 mg/kg
[4] = 12 mg/kg fish per day, total 60 mg/kg
[5] = 2 mg/kg fish per day, total 10 mg/kg

| Compound | sea lice elimination (L. salmonis) | Lepeophtheirus lice removed ([1]; 4 mg per kilogram per day for five days, three days into the five-day treatment) | Lice removed by 11 days after last day of treatment ([1]; 4 mg/kg fish per day, total 20 mg/kg, 16 days after treatment had started) | Lice removed by 11 days after last day of treatment ([1]; 4 mg/kg fish per day, total 20 mg/kg, 16 days after treatment had started, listed as imidacloprid) | Lice removed by 3 days after last day of treatment ([1]; 4 mg/kg fish per day, total 20 mg/kg, eight days after the treatment had started) | Lice removed by 3 days after last day of treatment ([1]; 4 mg/kg fish per day, total 20 mg/kg, eight days after the treatment had started, listed as imidacloprid) | Lice removed by 3 days after last day of treatment [1, 3] | Lice removed by 11 days after last day of treatment [1, 3] | Lice removed by 3 days after last day of treatment [1, 4] | Lice removed by 11 days after last day of treatment [1, 4] | Lice removed by 2 days after last day of treatment [1, 5] | Lice removed by 9 days after last day of treatment [1, 5] | Lice removed by 9 days after last day of treatment ([1]; 2 mg/kg fish per day, total 10 mg/kg, listed as imidacloprid) | Lice removed by 2 days after last day of treatment ([1]; 20 mg/kg fish per day, total 100 mg/kg) | removal of lice ([1]; higher dosages trialed, 40, 60 and 100 milligrams total) | abnormalities on histological examination of organs ([2]; 100 mg/kg total dosage) | mortalities ([2]; 100 mg/kg total dosage (five times the 20 mg/kg total dosage)) | lice killed (salmon lice) |
| --- | --- | --- | --- | --- | --- | --- | --- | --- | --- | --- | --- | --- | --- | --- | --- | --- | --- | --- |
| CN/C(=N\[N+](=O)[O-])NCc1cnc(Cl)s1 [clothianidin] | full sea lice elimination | – | – | – | – | – | – | – | – | – | – | – | – | – | – | – | – | – |
| O=[N+]([O-])NC1=NCCN1Cc1ccc(Cl)nc1 [Imidacloprid, (2E)-1-((6-chloropyridin-3-yl)methyl)-N-nitroimidazolidin-2-imine] | – | 13.6% | 100% | 100% | 96.70% and 96.75% | 96.75% | 97.84% | 97.84%^ | 100% | 100% | 64.28% | 77.67% | 77.7% | 88.37% | very effective removal of lice | no abnormalities detectable | no mortalities | 100% |
